# Laboratory results taken from BindingDB's records for doi:10.1124/mol.63.5.1082 (Johnson and Johnson Pharmaceutical Research and …, 2003).
# Values joined by “and” are separate entries in the source; they are usually repeats but may differ in a detail not shown here. Identical values can stand only once.
# Molecular target: Metabotropic glutamate receptor 1 (Rattus norvegicus, UniProt P23385)
# Sequence (P23385 whole entry): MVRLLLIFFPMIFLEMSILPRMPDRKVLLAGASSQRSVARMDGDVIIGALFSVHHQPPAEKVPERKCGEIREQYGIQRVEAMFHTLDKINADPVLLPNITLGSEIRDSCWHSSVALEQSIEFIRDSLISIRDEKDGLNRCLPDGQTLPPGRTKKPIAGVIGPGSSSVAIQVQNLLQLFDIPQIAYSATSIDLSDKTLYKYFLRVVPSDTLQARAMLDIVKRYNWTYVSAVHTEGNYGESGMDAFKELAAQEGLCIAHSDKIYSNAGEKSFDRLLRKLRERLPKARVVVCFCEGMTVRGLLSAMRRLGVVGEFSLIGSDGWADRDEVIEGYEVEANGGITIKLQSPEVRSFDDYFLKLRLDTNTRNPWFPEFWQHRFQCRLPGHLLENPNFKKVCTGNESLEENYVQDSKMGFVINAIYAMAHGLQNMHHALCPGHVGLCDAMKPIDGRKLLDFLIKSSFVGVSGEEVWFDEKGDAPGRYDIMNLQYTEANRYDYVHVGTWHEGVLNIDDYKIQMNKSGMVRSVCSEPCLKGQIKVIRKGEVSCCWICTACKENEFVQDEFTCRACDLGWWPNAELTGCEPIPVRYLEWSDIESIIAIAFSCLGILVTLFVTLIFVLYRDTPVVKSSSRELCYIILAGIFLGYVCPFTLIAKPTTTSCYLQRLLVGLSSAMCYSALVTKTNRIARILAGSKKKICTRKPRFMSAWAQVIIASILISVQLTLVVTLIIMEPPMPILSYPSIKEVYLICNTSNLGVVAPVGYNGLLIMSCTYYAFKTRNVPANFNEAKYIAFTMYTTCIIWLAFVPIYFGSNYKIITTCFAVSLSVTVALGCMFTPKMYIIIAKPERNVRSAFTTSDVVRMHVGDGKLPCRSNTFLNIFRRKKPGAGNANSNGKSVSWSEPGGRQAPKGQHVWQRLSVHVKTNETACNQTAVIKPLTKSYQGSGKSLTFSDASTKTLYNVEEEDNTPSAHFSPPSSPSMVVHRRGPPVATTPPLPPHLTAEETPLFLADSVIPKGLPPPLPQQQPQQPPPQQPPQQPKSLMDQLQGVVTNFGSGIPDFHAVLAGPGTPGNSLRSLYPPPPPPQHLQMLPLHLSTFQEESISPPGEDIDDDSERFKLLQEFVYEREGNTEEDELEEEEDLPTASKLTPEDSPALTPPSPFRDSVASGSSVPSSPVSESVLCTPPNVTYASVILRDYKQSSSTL
row,Compound,Ki
1,"N[C@H](C(=O)O)c1cc(O)cc(O)c1 [amino(3,5-dihydroxyphenyl)acetic acid]",> 10 µM
2,O=C(Cc1ccccc1)c1ccc2nc3c(cc2c1)CCCO3,1 µM
3,CCOC(=O)C12CC1C(N=O)c1ccccc1O2 (stereo not drawn) [CAS_5126051],1 µM and 4.9 µM
